pIC50: −log10 of the molar value.

For orientation: pIC50 means the IC50 on a negative log10 scale, so that one unit is a factor of ten.

T1 sequence (Q9BUB5 1-424 isoform Q9BUB5-2 T344D): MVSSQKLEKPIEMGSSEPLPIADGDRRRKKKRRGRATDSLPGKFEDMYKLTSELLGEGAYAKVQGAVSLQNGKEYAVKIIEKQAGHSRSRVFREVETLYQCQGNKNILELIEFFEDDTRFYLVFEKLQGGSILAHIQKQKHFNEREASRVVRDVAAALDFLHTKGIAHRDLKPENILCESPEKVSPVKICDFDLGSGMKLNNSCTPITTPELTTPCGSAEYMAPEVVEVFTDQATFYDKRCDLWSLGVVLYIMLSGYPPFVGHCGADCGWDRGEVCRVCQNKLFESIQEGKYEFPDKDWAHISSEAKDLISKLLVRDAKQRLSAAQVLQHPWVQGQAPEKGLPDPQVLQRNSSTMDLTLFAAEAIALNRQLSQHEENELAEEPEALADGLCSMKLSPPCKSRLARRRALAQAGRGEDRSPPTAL

One assay relates to eIF4E Ser209 phosphorylation in A549 cells. Briefly: AlphaScreen SureFire eIF4E Ser209 phosphorylation assay in A549 cells with 20% FCS stimulation. The class given is cell-based. Conditions: Homo sapiens, read-out: pEIF4e (IC50 of the EIF4e phosphorylation). From the text: The AlphaScreen SureFire eIF4E Ser209 phoshorylation assay is used to measure the phosphorylation of endogenous eIF4E in cellular lysates. The AlphaScreen SureFire technology allows the detection of phosphorylated proteins in cellular lysates. In this assay, sandwich antibody complexes, which are only formed in the presence of the analyte (p-eIF4E Ser209), are captured by AlphaScreen donor and acceptor beads, bringing them into close proximity. The excitation of the donor bead provokes the release of singlet oxygen molecules that triggers a cascade of energy transfer in the Acceptor beads, resulting in the emission of light at 520-620 nm.
Surefire EIF4e Alphascreen in A549 cells with 20% FCS stimulation
For the assay the AlphaScreen SureFire p-eIF4E Ser209 10K Assay Kit and the AlphaScreen ProteinA Kit (for 10K assay points) both from Perkin Elmer were used. On day one 50.000 A549 cells were plated in a 96-well plate in 100 μL per well in growth medium (DMEM/Hams' F12 with stable Glutamin, 10% FCS) and incubated at 37° C. After attachment of the cells, medium was changed to starving medium (DMEM, 0.1% FCS, without Glucose, with Glutamin, supplemented with 5 g/L Maltose). On day two, test compounds were serially diluted in 50 μL starving medium with a final DMSO concentration of 1% and were added to A549 cells in test plates at a final concentration range from as high 10 μM to as low 10 nM depending on the activities of the tested compounds. Treated cells were incubated at 37° C. for 2 h. 37 ul FCS was added to the wells (=final FCS concentration 20%) for 20 min. Then medium was removed and cells were lysed by adding 50 μL lysis buffer. Plates were then agitated on a plate shaker for 10 min. After 10 min lysis time, 4 μL of the lysate is transferred to a 384 well plate (Proxiplate from Perkin Elmer) and 5 μL Reaction Buffer plus Activation Buffer mix containing AlphaScreen Acceptor beads was added. Plates were sealed with TopSeal-A adhesive film, gently agitated on a plate shaker for 2 hours at room temperature. Afterwards 2 μL Dilution buffer with AlphaScreen Donor beads were added under subdued light and plates were sealed again with TopSeal-A adhesive film and covered with foil. Incubation takes place for further 2 h gently agitation at room temperature. Plates were then measured in an EnVision reader (Perkin Elmer) with the AlphaScreen program. Each data point (compound dilution) was measured as triplicate.
The IC50 values were determined by means of a 4-parameter fit using the company's own software.
On the technique in general: Bead proximity is the source of the signal in Alpha formats.
Turning to `COc1cc2[nH]ncc2cc1Nc1ncnc2sc3c(c12)CCC(C(=O)N(C)C)C3` (racemic) [Example 64, (RS)-4-[(6-Methoxy-1H-indazol-5-yl)amino]-N,N-dimethyl-5,6,7,8-tetrahydro[1]benzothieno[2,3-d]pyrimidine-7-carboxamide], the pIC50 was 7.29.

On to `COc1cc2[nH]ncc2cc1Nc1ncnc2sc3c(c12)CCC(C(=O)N1CCN(C)CC1)C3` (racemic) [Example 65, (RS)-{4-[(6-Methoxy-1H-indazol-5-yl)amino]-5,6,7,8-tetrahydro[1]benzothieno[2,3-d]pyrimidin-7-yl}(4-methylpiperazin-1-yl)methanone], for which the pIC50 is 6.46.

Turning to `COc1cc2[nH]ncc2cc1Nc1ncnc2sc3c(c12)CCC(C(=O)NC(C)C)C3` (racemic) [Example 66, (RS)-4-[(6-Methoxy-1H-indazol-5-yl)amino]-N-(propan-2-yl)-5,6,7,8-tetrahydro[1]benzothieno[2,3-d]pyrimidine-7-carboxamide], the pIC50 is 7.21.

Regarding `CC(C)Oc1cc2[nH]ncc2cc1Nc1ncnc2sc3c(c12)CCC(C(=O)N(C)C)C3` (racemic) [Example 70, (RS)—N,N-Dimethyl-4-{[6-(propan-2-yloxy)-1H-indazol-5-yl]amino}-5,6,7,8-tetrahydro[1]benzothieno[2,3-d]pyrimidine-7-carboxamide], the pIC50 is 7.05.

Regarding `CC(C)Oc1cc2[nH]ncc2cc1Nc1ncnc2sc3c(c12)CCC(C(=O)N1CCN(C)CC1)C3` (racemic) [Example 71, (RS)-(4-Methylpiperazin-1-yl)(4-{[6-(propan-2-yloxy)-1H-indazol-5-yl]amino}-5,6,7,8-tetrahydro[1]benzothieno[2,3-d]pyrimidin-7-yl)methanone], the pIC50 is 7.49.

The next assay has as its target T1, human full-length MKNK1 (Homo sapiens, UniProt Q9BUB5, T385D).
T1 construct: GST (N); purchased Carna Biosciences 02-145; host or cells: insect cells (baculovirus expression system)
The experiment in a line: MKNK1 kinase high ATP assay (TR-FRET). Type of assay: biochemical. To be noted: 2 mM ATP, after preincubation with MKNK1; read-out: MKNK1 IC50 (MKNK1 high ATP). In outline:
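Compound was preincubated 15 min at 22° C. with MKNK1 in 50 mM HEPES pH 7.5, 5 mM MgCl2, 1.0 mM DTT, then the reaction ran 30 min at 22° C. with 2 mM ATP and 0.06 μM biotinylated peptide (final).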
Background: TR-FRET usually uses a lanthanide donor and a delayed reading to cut background.
Turning to `COc1cc2[nH]ncc2cc1Nc1ncnc2sc3c(c12)CCC(C(=O)N(C)C)C3` (racemic) [Example 64, (RS)-4-[(6-Methoxy-1H-indazol-5-yl)amino]-N,N-dimethyl-5,6,7,8-tetrahydro[1]benzothieno[2,3-d]pyrimidine-7-carboxamide], the pIC50 is 9.10.

For `COc1cc2[nH]ncc2cc1Nc1ncnc2sc3c(c12)CCC(C(=O)N1CCN(C)CC1)C3` (racemic) [Example 65, (RS)-{4-[(6-Methoxy-1H-indazol-5-yl)amino]-5,6,7,8-tetrahydro[1]benzothieno[2,3-d]pyrimidin-7-yl}(4-methylpiperazin-1-yl)methanone], the pIC50 was 9.30.

As to `COc1cc2[nH]ncc2cc1Nc1ncnc2sc3c(c12)CCC(C(=O)NC(C)C)C3` (racemic) [Example 66, (RS)-4-[(6-Methoxy-1H-indazol-5-yl)amino]-N-(propan-2-yl)-5,6,7,8-tetrahydro[1]benzothieno[2,3-d]pyrimidine-7-carboxamide], the pIC50 is 8.80.

With `CC(C)Oc1cc2[nH]ncc2cc1Nc1ncnc2sc3c(c12)CCC(C(=O)N(C)C)C3` (racemic) [Example 70, (RS)—N,N-Dimethyl-4-{[6-(propan-2-yloxy)-1H-indazol-5-yl]amino}-5,6,7,8-tetrahydro[1]benzothieno[2,3-d]pyrimidine-7-carboxamide], the pIC50 is 9.40.

Take `CC(C)Oc1cc2[nH]ncc2cc1Nc1ncnc2sc3c(c12)CCC(C(=O)N1CCN(C)CC1)C3` (racemic) [Example 71, (RS)-(4-Methylpiperazin-1-yl)(4-{[6-(propan-2-yloxy)-1H-indazol-5-yl]amino}-5,6,7,8-tetrahydro[1]benzothieno[2,3-d]pyrimidin-7-yl)methanone]: the pIC50 was 9.30.

As for `CC(C)CNC(=O)C1CCc2c(sc3ncnc(Nc4ccc5[nH]ncc5c4)c23)C1` (stereo not drawn) [Example 39, 4-(1H-Indazol-5-ylamino)-N-(2-methylpropyl)-5,6,7,8-tetrahydro[1] benzothieno [2,3-d]pyrimidine-7-carboxamide], the pIC50 is 8.22.

Take `CN(C)CCCNC(=O)C1CCc2c(sc3ncnc(Nc4ccc5[nH]ncc5c4)c23)C1` (stereo not drawn) [Example 40, N-[3-(Dimethylamino)propyl]-4-(1H-indazol-5-ylamino)-5,6,7,8-tetrahydro[1] benzothieno [2,3-d]pyrimidine-7-carboxamide]: the negative-log IC50 (pIC50) is 8.15.

Consider `CN(CCO)C(=O)C1CCc2c(sc3ncnc(Nc4ccc5[nH]ncc5c4)c23)C1` (stereo not drawn) [Example 41, N-(2-Hydroxyethyl)-4-(1H-indazol-5-ylamino)-N-methyl-5,6,7,8-tetrahydro[1] benzothieno [2,3-d]pyrimidine-7-carboxamide], for which the pIC50 is 8.10.

Take `O=C(NCCN1CCOCC1)C1CCc2c(sc3ncnc(Nc4ccc5[nH]ncc5c4)c23)C1` (stereo not drawn) [Example 42, 4-(1H-Indazol-5-ylamino)-N-[2-(morpholin-4-yl)ethyl]-5,6,7,8-tetrahydro[1] benzothieno [2,3-d]pyrimidine-7-carboxamide]: the pIC50 was 8.05.

`O=C(C1CCc2c(sc3ncnc(Nc4ccc5[nH]ncc5c4)c23)C1)N1CCC1` (stereo not drawn) [Example 43, Azetidin-1-yl[4-(1H-indazol-5-ylamino)-5,6,7,8-tetrahydro[1]benzothieno [2,3-d]pyrimidin-7-yl]methanone]: the pIC50 was 8.05.

Regarding `O=C(NC1CC1)C1CCc2c(sc3ncnc(Nc4ccc5[nH]ncc5c4)c23)C1` (stereo not drawn) [Example 44, N-Cyclopropyl-4-(1H-indazol-5-ylamino)-5,6,7,8-tetrahydro[1] benzothieno [2,3-d]pyrimidine-7-carboxamide], the negative logarithm of the IC50 (pIC50) was 8.05.

Turning to `CN(C)CCN(C)C(=O)C1CCc2c(sc3ncnc(Nc4ccc5[nH]ncc5c4)c23)C1` (stereo not drawn) [Example 45, N-[2-(Dimethylamino)ethyl]-4-(1H-indazol-5-ylamino)-N-methyl-5,6,7,8-tetrahydro[1] benzothieno [2,3-d]pyrimidine-7-carboxamide], the pIC50 was 8.05.

As for `CCNC(=O)C1CCc2c(sc3ncnc(Nc4ccc5[nH]ncc5c4)c23)C1` (stereo not drawn) [Example 46, N-Ethyl-4-(1H-indazol-5-ylamino)-5,6,7,8-tetrahydro[1] benzothieno [2,3-d]pyrimidine-7-carboxamide], the pIC50 was 8.00.

With `O=C(C1CCc2c(sc3ncnc(Nc4ccc5[nH]ncc5c4)c23)C1)N1CCOCC1` (stereo not drawn) [Example 47, [4-(1H-Indazol-5-ylamino)-5,6,7,8-tetrahydro[1]benzothieno [2,3-d]pyrimidin-7-yl](morpholin-4-yl)methanone], the pIC50 is 7.96.

For the molecule `COCCCNC(=O)C1CCc2c(sc3ncnc(Nc4ccc5[nH]ncc5c4)c23)C1` (stereo not drawn) [Example 48, 4-(1H-Indazol-5-ylamino)-N-(3-methoxypropyl)-5,6,7,8-tetrahydro[1] benzothieno [2,3-d]pyrimidine-7-carboxamide], the pIC50 is 7.92.

Take `O=C(NCCCN1CCCC1=O)C1CCc2c(sc3ncnc(Nc4ccc5[nH]ncc5c4)c23)C1` (stereo not drawn) [Example 49, 4-(1H-Indazol-5-ylamino)-N-[3-(2-oxopyrrolidin-1-yl)propyl]-5,6,7,8-tetrahydro[1] benzothieno [2,3-d]pyrimidine-7-carboxamide]: the pIC50 is 7.89.

Regarding `COCCNC(=O)C1CCc2c(sc3ncnc(Nc4ccc5[nH]ncc5c4)c23)C1` (stereo not drawn) [Example 50, 4-(1H-Indazol-5-ylamino)-N-(2-methoxyethyl)-5,6,7,8-tetrahydro[1] benzothieno [2,3-d]pyrimidine-7-carboxamide], the pIC50 was 7.85.

As for `O=C(C1CCc2c(sc3ncnc(Nc4ccc5[nH]ncc5c4)c23)C1)N1CCCC1` (stereo not drawn) [Example 51, [4-(1H-Indazol-5-ylamino)-5,6,7,8-tetrahydro[1]benzothieno [2,3-d]pyrimidin-7-yl](pyrrolidin-1-yl)methanone], the pIC50 was 7.82.

In the case of `O=C(C1CCc2c(sc3ncnc(Nc4ccc5[nH]ncc5c4)c23)C1)N1CCN(C(=O)N2CCCC2)CC1` (stereo not drawn) [Example 52, [4-(1H-Indazol-5-ylamino)-5,6,7,8-tetrahydro[1]benzothieno [2,3-d]pyrimidin-7-yl][4-(pyrrolidin-1-ylcarbonyl)piperazin-1-yl]methanone], the pIC50 was 7.70.

Take `CCOC(=O)C1CCc2c(sc3ncnc(Nc4cc5cn[nH]c5cc4Cl)c23)C1` (stereo not drawn) [Example 53, Ethyl 4-[(6-chloro-1H-indazol-5-yl)amino]-5,6,7,8-tetrahydro[1]benzothieno[2,3-d]pyrimidine-7-carboxylate]: the pIC50 was 8.05.

As to `CCOC(=O)C1CCc2c(sc3ncnc(Nc4cc5cn[nH]c5cc4F)c23)C1` (stereo not drawn) [Example 54, Ethyl 4-[(6-fluoro-1H-indazol-5-yl)amino]-5,6,7,8-tetrahydro[1]benzothieno[2,3-d]pyrimidine-7-carboxylate], the pIC50 is 7.72.

With `O=C(O)C1CCc2c(sc3ncnc(Nc4cc5cn[nH]c5cc4F)c23)C1` (stereo not drawn) [Example 55, 4-[(6-Fluoro-1H-indazol-5-yl)amino]-5,6,7,8-tetrahydro[1]benzothieno[2,3-d]pyrimidine-7-carboxylic acid], the pIC50 was 7.43.

In the case of `COc1cc2[nH]ncc2cc1Nc1ncnc2sc3c(c12)CCC(C(=O)O)C3` (stereo not drawn) [Example 57, 4-[(6-Methoxy-1H-indazol-5-yl)amino]-5,6,7,8-tetrahydro[1]benzothieno[2,3-d]pyrimidine-7-carboxylic acid], the pIC50 is 8.15.

With `CCN(C(=O)C1CCc2c(sc3ncnc(Nc4cc5cn[nH]c5cc4OC)c23)C1)C(C)C` (stereo not drawn) [Example 67, N-Ethyl-4-[(6-Methoxy-1H-indazol-5-yl)amino]-N-(propan-2-yl)-5,6,7,8-tetrahydro[1]benzothieno[2,3-d]pyrimidine-7-carboxamide], the pIC50 is 9.15.

In the case of `CCCN(C)C(=O)C1CCc2c(sc3ncnc(Nc4cc5cn[nH]c5cc4OC)c23)C1` (stereo not drawn) [Example 68, 4-[(6-Methoxy-1H-indazol-5-yl)amino]-N-methyl-N-propyl-5,6,7,8-tetrahydro[1]benzothieno[2,3-d]pyrimidine-7-carboxamide], the pIC50 was 9.15.

These data come from US9540392B2, “Thienopyrimidines” (BAYER PHARMA AKTIENGESELLSCHAFT, priority 2012, dated 2017).
